≈ marks a conversion by molar mass, not a printed value. Read-outs that look alike come from different tables or passages of the source.
Legend:
[1] = system: LPS-induced TNFα production in rat splenocytes; assay: LPS-induced TNFα production in rat mononuclear spleen cells (rTNFα splenocytes); type: cell-based; conditions: Splenocyte, LPS-stimulated TNFα release, rat splenocytes, average (SD); for Emax: read-out: rTNFα splenocytes Intrinsic activity
Description: (§1) • Human A2a and A2b receptor pharmacology: Chinese hamster ovary CHO-K1 cells stably expressing human A2a and A2b receptors were used to determine substances agonistic potency and intrinsic activity. […] The signal corresponding to adenosine at 100 μmol/L was used to define 100% intrinsic activity. • Human A3 receptor pharmacology: A3 receptor Gi coupling was measured by GTPγ ^35[S] filter assay at serial dilutions of compound using membranes from Perkin-Elmer. The signal corresponding to the maximal response of NECA at 100 μmol/L was set to 100% intrinsic activity. • Lipopolysaccharide (LPS)-induced TNFα production in primary human peripheral blood mononuclear cells (hTNFα PBMC) and rat mononuclears (rTNFα splenocytes): Human PBMC and rat mononuclear spleen cells were incubated with serial dilutions of compound and stimulated with LPS.
Procedures and assays were run in R10 buffer (RPMI 1640 Medium supplemented with GlutaMAX™ and HEPES (GIBCO-BRL), 10% fetal calf serum, penicillin and streptomycin (each 5000IU/ml)). Human PBMC were purified from heparinised blood by Ficoll separation (Ficoll, Amersham Pharmacia Biotech AB, Cat: 17-1440-03, Lot: 312170) and rat mononuclear cells were collected after rat spleen perfusion. Both cell preparations were followed by hypotonic lysis of residual erythrocytes. Serial dilutions of compounds were pre-incubated with 200 000 cells/well (96-well plate) for 45min in 37 °C (190µl). Cells were stimulated by 10µl LPS (final concentration 0.5ng/ml human and 150ng/ml rat; SIGMA Cat: L-4516, Lot: 104K4036) for 18h at 37 °C. TNFα release was measured by ELISA (^TmR&D Systems plates) according to the manufacturer’s instructions in cell free supernatant.

[2] = Lipophilicity (LogD), shake flask; type: physicochemical; conditions: octanol-water, phosphate buffer pH 7.4; for logD at 10 min: 1-octanol / phosphate buffer
Description: as §1
The octanol-water partition coefficient (LogD) was measured using the shake flask method. 600µL of 1-octanol was added to a vial with 6µL of 10mM DMSO-solution of the test compound. 600µL of 10mM sodium phosphate buffer adjusted to pH 7.4 was added and equilibrium was performed by vigorous shaking for ten minutes with an Eppendorf mixer. The phases were separated by centrifugation. The samples were analysed by HPLC with UV-detection at 254nm.

[3] = Plasma protein binding by equilibrium dialysis; type: in vitro ADME; conditions: male, Wistar, pH 7.4, rat plasma, 10 μmol/L, read-out: fu rat (free unbound drug in plasma)
Description: as §1
The plasma protein binding was determined in plasma from male Wistar rats at a compound concentration of 10μM by equilibrium dialysis against a phosphate buffer at pH 7.4 using a semi-permeable membrane with a molecular cut-off of 6-8KDa (Spectra/Por, Spectrum Laboratories Inc, US). The compounds were dialyzed for 18h at 37±1°C in an air incubator on an orbital shaker. The samples were analysed using LC-MS/MS.

[4] = system: allergen-challenged Brown Norway rats; parameters: method as in Fozard et al. [2002]; conditions: intratracheal; ref Fozard et al. [2002]; cited from earlier work
[5] = system: LPS-induced BAL neutrophils; assay: LPS-induced lung inflammation model, neutrophils in BAL fluid; type: in vivo, rat; conditions: data not shown
Description: The efficacy of the compound on neutrophils in BAL fluid is expressed as per cent inhibition of the full window (negative veh/veh controls vs. the positive veh/LPS controls): Inhibition (%) of LPS-induced BAL neutrophils by compound 2 was calculated using the following formula: [drawing 1] where A is the average in the group administered with vehicle and challenged with LPS; B is the average in the group administered with vehicle and challenged with saline; and C is the average in the group administered with test compound and challenged with LPS.
Animals in all efficacy studies were dosed intratracheally as described above in a buffered saline vehicle (pH 5) containing sodium chloride (8.5mg/ml), citric acid (0.28mg/ml) and sodium citrate (0.5mg/ml). The compound was dissolved in saline when given intravenously (0.9% NaCl) to the swivelled rats.
[…] Each rat was given LPS from the Pseudomona Aeruginosa bacteria (1µg/rat, 5µg/ml saline, Sigma-Aldrich, Sweden).
24 hours after the LPS challenge, rats were anaesthetized and exsanguinated via a cardiac incision. A tube was inserted and ligated to the trachea. The tube was connected to a syringe with 4ml PBS (without Ca^2+/Mg^2+) and a lavage of the whole lung was performed manually. The BAL fluid was collected individually in polyethylene tubes and kept on ice until further processed.
The BAL fluid was centrifuged and the supernatant separated from the cell pellet that was resuspended in 1.0ml of PBS. The total number of cells and cell differentia was counted in an automated cell counter and haematology analyzer (SYSMEX XT-1800iV, software for the rat BALF).

[6] = In vivo pharmacokinetics in rats (i.v., oral, intratracheal); conditions: for Rat blood clearance: i.v.; for half-life: lung, inhaled or intranasal, intratracheal dosing, n = 2/time point, read-out: Lung t½ (terminal half-life in lung) (converted); for Kp at 24 h: other: intratracheal (i.t.), i.t., ratio of lung concentration 24 h after dose to blood Cmax after same dose, read-out: Lung/blood split
Description: Rat PK was determined after an i.v. dose of 0.1μmol/kg (approximately 50μg/kg, 1ml/kg, TEG:H2O 50:50) given via a catheter in vena jugularis. The PK after oral administration was performed at a dose of 6μmol/kg (approximately 3mg/kg, 4ml/kg, 0.5% HPMC) given by gavage. Intratracheal PK was determined at 0.03 to 0.6μmol/kg (17 to 300μg/kg, 1ml/kg, in a vehicle containing sodium chloride (8.5mg/ml), EDTA (0.1mg/ml), citric acid (0.15mg/ml), sodium citrate (0.5mg/ml) and polysorbate 80 (0.2mg/mL) in purified water). The i.t. dose was given to anaesthetized (isofluran) rats, positioned at approximately 30° angle (head up) and the compound was administered in the trachea using a modified metal cannula. Rats were put back in their cages while regaining consciousness. Serial blood sampling of 100 to 200µl was performed after i.v. and p.o. dosing at pre-defined timepoints. Blood was mixed 1:4 with purified water containing heparin (10 to 30U/ml) in order to haemolyse the blood cells, and then placed in a 96-well plate and stored at –70°C until analysed. The dilution factor was accounted for in the data analysis. After i.t. dosing, animals were euthanized with isoflurane or pentobarbital at defined timepoints after dosing, blood samples taken from the vena jugularis or arteria carotis, handled and stored as described above. The rats were bled to drain as much blood as possible from the lungs. The lungs including the trachea were carefully dissected out with all non-relevant tissue removed, placed in pre-weighed vials and weighed. The lung vials were stored at –70°C until analyzed.
Lung tissue was frozen in liquid nitrogen and homogenised using a CryoPrep pneumatic hammer. The homogenisation of the tissue and the extraction of the compound were done in 4ml Ringer solution with an Adaptive Focused Acoustic Instrument. 50µl of the supernatant was transferred to a 96-well plate. All lung, blood and plasma samples were analysed by LC-MS/MS using a selective and sensitive method. Peak areas were used in comparison to those produced by the standard curve to determine parent compound concentrations. Homogenate concentrations were adjusted to account for the sample dilutions to give tissue concentrations.

A2a = A2a (Homo sapiens, UniProt P29274); assay: Human A2a receptor pharmacology: cAMP Alphascreen in CHO-K1 cells; type: cell-based; parameters: expressed in transfected cells; host or cells: CHO-K1; conditions: average (SD); for Emax: CHO-K1, 100% = 10 μmol/L NECA, read-out: A2a human CHO-K1 cells Intrinsic activity; for EC50: cAMP generation
Description: as §1
Chinese hamster ovary CHO-K1 cells stably expressing human A2a and A2b receptors were stored as 1ml aliquots at -150 °C in freezing medium, thawed immediately prior to assay. […] Cells (10000 cells/well) were incubated with test compounds prepared as serial dilutions. Potency (EC50) and efficacy (% of maximal response) were calculated from data fitted to a 4-parameter logistic function. The signal of 10µM NECA represented the maximal cAMP response (i.e. 100% of efficacy) produced by these cells.

[7] = Substance solubility in phosphate buffer; type: physicochemical; conditions: aqueous buffer, thermodynamic from solid; phosphate buffer pH 7.4, dry compound in solid state
Description: as §1
Solubility was measured in phosphate buffer at pH 7.4 using dry compounds in solid state.

heart = system: heart; parameters: method as in Macallum et al. [1991]; conditions: oral, dog study; ref Macallum et al. [1991]; cited from earlier work
[8] = parameters: method as in Mantell et al. [2009], [2010]; conditions: over the dose range tested; ref Mantell et al. [2009], [2010]; cited from earlier work
[9] = parameters: method as in Mantell et al. [2010]; conditions: ref Mantell et al. [2010]; cited from earlier work
patients with COPD = system: patients with COPD; parameters: method as in Mantell et al. [2009], [2010]; conditions: ref Mantell et al. [2009], [2010]; cited from earlier work

Sequence of A2a (P29274 whole entry): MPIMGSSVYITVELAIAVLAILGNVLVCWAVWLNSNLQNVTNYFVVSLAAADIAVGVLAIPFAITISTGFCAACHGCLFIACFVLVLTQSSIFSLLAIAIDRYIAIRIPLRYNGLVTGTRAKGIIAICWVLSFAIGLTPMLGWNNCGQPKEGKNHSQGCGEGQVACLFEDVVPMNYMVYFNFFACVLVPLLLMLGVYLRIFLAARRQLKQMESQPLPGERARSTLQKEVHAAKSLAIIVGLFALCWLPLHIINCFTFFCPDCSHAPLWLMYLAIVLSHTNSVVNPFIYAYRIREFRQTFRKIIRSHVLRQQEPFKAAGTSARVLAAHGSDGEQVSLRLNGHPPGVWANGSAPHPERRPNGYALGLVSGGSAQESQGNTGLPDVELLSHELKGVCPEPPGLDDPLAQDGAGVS

IC50 [1] [nM] | logD at 10 min [2] | fraction unbound at 18 h, 10 μM [3] | Rat blood clearance ([6]; mean of n = 3) [mL/min per kg] | half-life ([6]; rat) [h] | Kp at 24 h ([6]; rat) | Emax (A2a) [%] | EC50 (A2a) [nM] | solubility [7] [µM] | SMILES | Emax [1] [%] | also measured
6.9 | < -1 | 0.17 | 26 | 1 | < 0.08 | – | – | – | CCNC(=O)[C@H]1O[C@@H](n2cnc3c(N)nc(NCCc4ccc(CCC(=O)O)cc4)nc32)[C@H](O)[C@@H]1O [CGS21680, 3-[4-[2-[[6-amino-9-[(2R,3R,4S,5S)-5-(ethylcarbamoyl)-3,4-dihydroxy-tetrahydrofuran-2-yl]purin-2-yl]amino]ethyl]phenyl]propanoic acid, reference compound] | 63.5 | Effect on lung inflammation [4]: inhibited lung inflammation; Pretreatment time at which maximal efficacy was seen [5]: 30 min; Percentage of dose remaining in lung at 4 h ([6]; rat, single i.t. dose 300 μg/kg, 4 h): less than 1%
3.2 | 2 | 0.2 | 65 | 6 | 1.8 | 102 | 2.4 | > 1000 | CCNC(=O)[C@H]1O[C@@H](n2cnc3c(NC(CC)CC)nc(NCCNC(=O)Nc4ccncc4)nc32)[C@H](O)[C@@H]1O [Compound 1, (2S,3S,4R,5R)-N-ethyl-5-[6-(1-ethylpropylamino)-2-[2-(4-pyridylcarbamoylamino)ethylamino]purin-9-yl]-3,4-dihydroxy-tetrahydrofuran-2-carboxamide] | 53.4 | bioavailability ([6]; whole blood, 6 umol/kg, rat, oral, mean of n = 3, read-out: Rat oral F (bioavailability)): 1.4%
0.2 | -0.35 | 0.11 | 42 | 80 | 1800 | 96.2 | 0.4 | 420 | CCNC(=O)[C@H]1O[C@@H](n2cnc3c(NCC(c4ccccc4)c4ccccc4)nc(NCCNC(=O)Nc4cc[n+](C)cc4)nc32)[C@H](O)[C@@H]1O [Compound 3, (2S,3S,4R,5R)-5-[6-(2,2-diphenylethylamino)-2-[2-[(1-methylpyridin-1-ium-4-yl)carbamoylamino]ethylamino]purin-9-yl]-N-ethyl-3,4-dihydroxy-tetrahydrofuran-2-carboxamide] | 58 | Percentage of dose remaining in lung at 24 h ([6]; rat, single i.t. dose (17 and 20 μmol/kg for compounds 2 and 3 as printed in Fig. 5), 24 h): 52%
– | – | – | – | – | – | – | – | – | OC[C@H]1O[C@@H](n2cnc3c(NCC(c4ccccc4)c4ccccc4)ncnc32)[C@H](O)[C@@H]1O [DPEA, N-(2,2-diphenylethyl) adenosine] | – | Myocardial findings (heart): myocardial degeneration and necrosis

SMILES | IC50 [1] [nM] | logD at 10 min [2] | fraction unbound at 18 h, 10 μM [3] | Rat blood clearance ([6]; mean of n = 3) [mL/min per kg] | half-life ([6]; rat) [h] | Kp at 24 h ([6]; rat) | Emax (A2a) [%] | EC50 (A2a) [nM] | solubility [7] [µM] | Emax [1] [%] | also measured
CCNC(=O)[C@H]1O[C@@H](n2cnc3c(NCC(c4ccccc4)c4ccccc4)nc(C(=O)NCCNC(=O)NC4CCN(c5ccccn5)CC4)nc32)[C@H](O)[C@@H]1O [UK-432,097, 6-(2,2-diphenylethylamino)-9-[(2R,3R,4S,5S)-5-(ethylcarba-moyl)-3,4-dihydroxy-tetrahydrofuran-2-yl]-N-[2-[[1-(2-pyridyl)-4-piperidyl]carbamoylamino]ethyl]purine-2-carboxamide, reference compound] | 2.6 | – | 0.014 | 37 | 4 | 2.7 | – | – | 12 (≈ 9.33 µg/mL) | 60.9 | Safety in Phase I clinical study [8]: no safety limitation; Clearance [9]: rapid; Oral bioavailability [9]: low; Plasma protein binding [9]: high; solubility [9]: low; LogD [2]: 3.4; Efficacy in Phase II study (patients with COPD): failed to show efficacy; Percentage of dose remaining in lung at 6 h ([6]; rat, i.t. dose 130 μg/kg, 6 h): approximately 3%

Source: paper PMC4492750, “The discovery of a selective and potent A2a agonist with extended lung retention” (Pharmacology Research & Perspectives, 2015)
